Data taken from PMC10418599, “Quercetins, Chlorogenic Acids and Their Colon Metabolites Inhibit Colon Cancer Cell Proliferation at Physiologically Relevant Concentrations” (International Journal of Molecular Sciences, 2023).
pIC50: −log10 of the molar value.

Legend:
SW480 cell line [1] = assay: Anti-proliferative assay (MTS cell proliferation assay); assay type: cell-based, Human; conditions: maximum tested concentration 200 μmol/L
Procedure: Human colon cancer Caco-2 and SW480 cell lines were cultured and grown as previously reported. […] Incubation was carried out for 24, 48 and 72 h. Data were compared with a control solution containing 0.5% DMSO in cell medium and representing 100% proliferation. In addition, six different mixes were prepared to simulate the simultaneous presence of parent phenolic compounds and metabolites by mimicking the possible human inter-individual variability in colon metabolism of phenolic compounds. Two sets of mixes were prepared to consider the colon metabolism of quercetins and chlorogenic acids. […] For each set of mixtures (QUE and CGA mixtures), three different mixes were formulated. One set of mixes mimicked the low-producers metabotype and contained 90% parent compounds and 10% metabolites (mixes QUE-LP and CGA-LP). Another set of mixes was prepared to simulate the high-producers metabotype and contained 10% parent compounds and 90% metabolites (mixes QUE-HP and CGA-HP). Finally, a third set of mixes was prepared with equimolar amounts of all the compounds (mixes QUE-EQ and CGA-EQ). […] Cell proliferation was assessed by the MTS assay as previously described. […] The IC50 values were calculated through non-linear regression analysis by plotting the base-10 logarithm of the phenolic compound concentration vs. the percentage of inhibition.

SW480 cell line [2] = assay: Cell metabolism of phenolic compounds (UHPLC-HR-MS analysis of cell media); assay type: in vitro ADME, Human
Procedure: To analyze the metabolism of phenolic compounds by Caco-2 and SW480 cells, the cell culture media were withdrawn after 0, 24, 48 and 72 h of incubation. Phenolic compounds were extracted from the culture media by following the procedure reported in Sala et al.. Briefly, 100 μL of cold methanol was mixed with 100 μL of cell media and vortexed for 1 min. The mixture was then centrifuged at 10,000× g (4 °C, 5 min) and the supernatant was injected, after appropriate dilution, in an ultra-high-performance liquid chromatography high-resolution mass spectrometry system (UHPLC-HR-MS).
The HR-MS system consisted of a UHPLC Ultimate 3000 separation module, equipped with a C18 column (Acquity UPLC HSS C18 reversed phase, 2.1 × 100 mm, 1.8 μm particle size, Waters, Milan, Italy) and coupled with a Q Exactive Hybrid Quadrupole-Orbitrap Mass Spectrometer (Thermo Scientific, San Jose, CA, USA). Mobile phases consisted of a mixture of water containing formic acid (0.1%) (mobile phase A) and acetonitrile containing formic acid (0.1%) (mobile phase B). The gradient began at 1% B, reaching 40% B over 20 min. To wash the column, the mobile phase B concentration was raised to 99% over 6 min and kept at 99% for 3 min before returning to the initial conditions. The MS and MS/MS conditions are fully described in Martini et al..
Quantification was carried out by building external calibration curves with the available standard compounds.

[3] = SW480, 24 h, substrate 3-O-Caffeoylquinic acid trans 50 μmol/L
[4] = SW480, 24 h, substrate 5-O-Caffeoylquinic acid trans 50 μmol/L
[5] = SW480, 48 h, substrate 3-O-Caffeoylquinic acid trans 50 μmol/L
[6] = SW480, 48 h, substrate 5-O-Caffeoylquinic acid trans 50 μmol/L
[7] = SW480, 72 h, substrate 3-O-Caffeoylquinic acid trans 50 μmol/L
[8] = SW480, 72 h, substrate 5-O-Caffeoylquinic acid trans 50 μmol/L
[9] = SW480, 24 h, substrate 3,5-di-O-Caffeoylquinic acid 50 μmol/L
[10] = SW480, 48 h, substrate 3,5-di-O-Caffeoylquinic acid 50 μmol/L
[11] = SW480, 72 h, substrate 3,5-di-O-Caffeoylquinic acid 50 μmol/L

O=c1c(O[C@@H]2O[C@H](CO)[C@@H](O)[C@H](O)[C@H]2O)c(-c2ccc(O[C@@H]3O[C@H](CO)[C@@H](O)[C@H](O)[C@H]3O)c(O)c2)oc2cc(O)cc(O)c12 [Quercetin-3-O-glucoside-4′-O-glucoside, quercetin-3-O-glucoside-4′-O-glucoside]
pIC50 (SW480 cell line [1]; SW480, 48 h of incubation): < 3.70 | pIC50 (SW480 cell line [1]; SW480, 72 h of incubation): ~3.70

COc1cc(/C=C/C(=O)O[C@@H]2C[C@@](O)(C(=O)O)C[C@@H](O)[C@@H]2O)ccc1O [5-O-Feruloylquinic acid]
Concentration of newly formed metabolite (SW480 cell line [2]; [3]): 30 ± 0 nM | Concentration of newly formed metabolite (SW480 cell line [2]; [4]): 10 ± 0 nM | Concentration of newly formed metabolite (SW480 cell line [2]; [5]): 30 ± 0 nM | Concentration of newly formed metabolite (SW480 cell line [2]; [6]): 30 ± 0 nM | Concentration of newly formed metabolite (SW480 cell line [2]; [7]): 50 ± 0 nM | Concentration of newly formed metabolite (SW480 cell line [2]; [8]): 30 ± 0 nM

O=C(/C=C/c1ccc(O)c(O)c1)OC1CC(O)(C(=O)O)CC(O)C1OC(=O)/C=C/c1ccc(O)c(O)c1 (stereo not shown) [3,4-di-O-Caffeoylquinic acid]
Concentration of newly formed metabolite (SW480 cell line [2]; [9]): 10120 ± 100 nM | Concentration of newly formed metabolite (SW480 cell line [2]; [10]): 8040 ± 140 nM | Concentration of newly formed metabolite (SW480 cell line [2]; [11]): 9050 ± 150 nM

COc1cc(/C=C/C(=O)O)ccc1O [Ferulic acid]
Concentration of newly formed metabolite (SW480 cell line [2]; [4]): 60 ± 20 nM | Concentration of newly formed metabolite (SW480 cell line [2]; [6]): 330 ± 10 nM | Concentration of newly formed metabolite (SW480 cell line [2]; [8]): 370 ± 10 nM

O=C(/C=C/c1ccc(O)c(O)c1)OC1CC(OC(=O)/C=C/c2ccc(O)c(O)c2)(C(=O)O)CC(O)C1O (stereo not shown) [1,3-di-O-Caffeoylquinic acid]
Concentration of newly formed metabolite (SW480 cell line [2]; [9]): 8970 ± 40 nM | Concentration of newly formed metabolite (SW480 cell line [2]; [10]): 8870 ± 50 nM | Concentration of newly formed metabolite (SW480 cell line [2]; [11]): 10980 ± 20 nM

O=C(/C=C/c1ccc(O)c(O)c1)O[C@@H]1[C@H](O)C[C@@](O)(C(=O)O)C[C@H]1OC(=O)/C=C/c1ccc(O)c(O)c1 [4,5-di-O-Caffeoylquinic acid]
Concentration of newly formed metabolite (SW480 cell line [2]; [9]): 3300 ± 50 nM | Concentration of newly formed metabolite (SW480 cell line [2]; [10]): 2200 ± 20 nM | Concentration of newly formed metabolite (SW480 cell line [2]; [11]): 1710 ± 30 nM

COc1cc(/C=C/C(=O)OC2CC(O)(C(=O)O)CC(O)C2O)ccc1O (stereo not shown) [3-O-Feruloylquinic acid]
Concentration of newly formed metabolite (SW480 cell line [2]; [3]): 80 ± 0 nM | Concentration of newly formed metabolite (SW480 cell line [2]; [4]): 60 ± 0 nM | Concentration of newly formed metabolite (SW480 cell line [2]; [5]): 120 ± 0 nM | Concentration of newly formed metabolite (SW480 cell line [2]; [6]): 70 ± 0 nM | Concentration of newly formed metabolite (SW480 cell line [2]; [7]): 170 ± 0 nM | Concentration of newly formed metabolite (SW480 cell line [2]; [8]): 50 ± 0 nM

O=C(/C=C/c1ccc(O)c(O)c1)O[C@@H]1C[C@](O)(C(=O)O)C[C@@H](O)[C@H]1O [5-O-Caffeoylquinic acid cis, 5-O-Caffeoylquinic acid]
Concentration of newly formed metabolite (SW480 cell line [2]; [6]): 970 ± 50 nM | Concentration of newly formed metabolite (SW480 cell line [2]; [8]): 1420 ± 10 nM

O=c1c(O[C@@H]2O[C@H](CO)[C@@H](O)[C@H](O)[C@H]2O)c(-c2ccc(O)c(O)c2)oc2cc(O)cc(O)c12 [Quercetin-3-O-glucoside]
Concentration of newly formed metabolite (SW480 cell line [2]; SW480, 24 h, substrate Quercetin-3-O-glucoside-4′-O-glucoside 50 μmol/L): 3350 ± 10 nM | Concentration of newly formed metabolite (SW480 cell line [2]; SW480, 48 h, substrate Quercetin-3-O-glucoside-4′-O-glucoside 50 μmol/L): 8940 ± 30 nM | Concentration of newly formed metabolite (SW480 cell line [2]; SW480, 72 h, substrate Quercetin-3-O-glucoside-4′-O-glucoside 50 μmol/L): 9340 ± 50 nM
